From patent publication US20140107219A1, “LOCAL ANAESTHETIC” (VITA (EUROPE) LIMITED, priority 2011, published 2014)
“And” between values parts separate entries of the source, which are not always exact repeats. Equal entries are not always repeated. Where two headings read alike, the source gives them in different places.

Tests used:
[1] = test system: isolated sciatic nerve of the rat; test: Evoked compound action potential (CAP) of the isolated rat sciatic nerve in a three-chamber bath (ex vivo): inhibition and recovery after washout; conditions: for IT0: 15 mM (1.7 mg/mL)
Acute LD50 = format: in vivo; conditions: from acute LD50
[2] = target: T1, hNav1.6 sodium channels (SCN8A gene, expressed in CHO cells) (Homo sapiens, UniProt Q9UQD0); test: Automated patch clamp (PatchXpress 7000A), cloned hNav1.6 in CHO cells, tonic and phasic; format: cell-based; conditions: for inhibition at 730 µg/mL / inhibition at 1460 µg/mL / inhibition at 2190 µg/mL / inhibition at 2920 µg/mL: CHO
T1 construct: expressed in transfected cells; host or cells: CHO cells
Experimental: In this example, the in vitro effects of 2-heptanone on the following ion channels were evaluated at room temperature using the PatchXpress 7000A (Molecular Devices), an automatic parallel patch clamp system:
(§1) 1. Cloned hNav1.2 sodium channels (SCN2A gene, expressed in CHO cells). 2. Cloned hNav1.6 sodium channels (SCN8A gene, expressed in CHO cells).
The effects of 2-heptanone were evaluated at 0.73, 1.46, 2.19, and 2.92 mg/ml with each concentration tested in two cells (n=2). The duration of exposure to each concentration of 2-heptanone was 5 minutes. Tables 2 to 5 show the individual results from each concentration followed by individual concentration-response curves. The positive controls (Table 6) confirm the sensitivity of the test systems to inhibition.
. Br. J. Pharmacol. 164, 719-730). […]

[3] = test system: peripheral nervous system of the rat; conditions: in-vivo; cited from earlier work
[4] = in vivo; cited from earlier work
[5] = target: T2, hNav1.2 sodium channels (SCN2A gene, expressed in CHO cells) (Homo sapiens, UniProt Q99250); test: Automated patch clamp (PatchXpress 7000A), cloned hNav1.2 in CHO cells, tonic and phasic; format: cell-based; conditions: for inhibition at 730 µg/mL / inhibition at 1460 µg/mL / inhibition at 2190 µg/mL / inhibition at 2920 µg/mL: CHO
T2 construct: expressed in transfected cells; host or cells: CHO cells
Source text: as §1

gastrocnemius muscle = test: In vivo muscle CAP (mCAP, EMG integral) after intramuscular injection, gastrocnemius muscle; set-up: species or system rat
biceps muscle = test: In vivo muscle CAP (mCAP, EMG integral) after intramuscular injection, biceps muscle; conditions: 7.2 mg/kg intramuscular

T2 sequence (Q99250 whole entry): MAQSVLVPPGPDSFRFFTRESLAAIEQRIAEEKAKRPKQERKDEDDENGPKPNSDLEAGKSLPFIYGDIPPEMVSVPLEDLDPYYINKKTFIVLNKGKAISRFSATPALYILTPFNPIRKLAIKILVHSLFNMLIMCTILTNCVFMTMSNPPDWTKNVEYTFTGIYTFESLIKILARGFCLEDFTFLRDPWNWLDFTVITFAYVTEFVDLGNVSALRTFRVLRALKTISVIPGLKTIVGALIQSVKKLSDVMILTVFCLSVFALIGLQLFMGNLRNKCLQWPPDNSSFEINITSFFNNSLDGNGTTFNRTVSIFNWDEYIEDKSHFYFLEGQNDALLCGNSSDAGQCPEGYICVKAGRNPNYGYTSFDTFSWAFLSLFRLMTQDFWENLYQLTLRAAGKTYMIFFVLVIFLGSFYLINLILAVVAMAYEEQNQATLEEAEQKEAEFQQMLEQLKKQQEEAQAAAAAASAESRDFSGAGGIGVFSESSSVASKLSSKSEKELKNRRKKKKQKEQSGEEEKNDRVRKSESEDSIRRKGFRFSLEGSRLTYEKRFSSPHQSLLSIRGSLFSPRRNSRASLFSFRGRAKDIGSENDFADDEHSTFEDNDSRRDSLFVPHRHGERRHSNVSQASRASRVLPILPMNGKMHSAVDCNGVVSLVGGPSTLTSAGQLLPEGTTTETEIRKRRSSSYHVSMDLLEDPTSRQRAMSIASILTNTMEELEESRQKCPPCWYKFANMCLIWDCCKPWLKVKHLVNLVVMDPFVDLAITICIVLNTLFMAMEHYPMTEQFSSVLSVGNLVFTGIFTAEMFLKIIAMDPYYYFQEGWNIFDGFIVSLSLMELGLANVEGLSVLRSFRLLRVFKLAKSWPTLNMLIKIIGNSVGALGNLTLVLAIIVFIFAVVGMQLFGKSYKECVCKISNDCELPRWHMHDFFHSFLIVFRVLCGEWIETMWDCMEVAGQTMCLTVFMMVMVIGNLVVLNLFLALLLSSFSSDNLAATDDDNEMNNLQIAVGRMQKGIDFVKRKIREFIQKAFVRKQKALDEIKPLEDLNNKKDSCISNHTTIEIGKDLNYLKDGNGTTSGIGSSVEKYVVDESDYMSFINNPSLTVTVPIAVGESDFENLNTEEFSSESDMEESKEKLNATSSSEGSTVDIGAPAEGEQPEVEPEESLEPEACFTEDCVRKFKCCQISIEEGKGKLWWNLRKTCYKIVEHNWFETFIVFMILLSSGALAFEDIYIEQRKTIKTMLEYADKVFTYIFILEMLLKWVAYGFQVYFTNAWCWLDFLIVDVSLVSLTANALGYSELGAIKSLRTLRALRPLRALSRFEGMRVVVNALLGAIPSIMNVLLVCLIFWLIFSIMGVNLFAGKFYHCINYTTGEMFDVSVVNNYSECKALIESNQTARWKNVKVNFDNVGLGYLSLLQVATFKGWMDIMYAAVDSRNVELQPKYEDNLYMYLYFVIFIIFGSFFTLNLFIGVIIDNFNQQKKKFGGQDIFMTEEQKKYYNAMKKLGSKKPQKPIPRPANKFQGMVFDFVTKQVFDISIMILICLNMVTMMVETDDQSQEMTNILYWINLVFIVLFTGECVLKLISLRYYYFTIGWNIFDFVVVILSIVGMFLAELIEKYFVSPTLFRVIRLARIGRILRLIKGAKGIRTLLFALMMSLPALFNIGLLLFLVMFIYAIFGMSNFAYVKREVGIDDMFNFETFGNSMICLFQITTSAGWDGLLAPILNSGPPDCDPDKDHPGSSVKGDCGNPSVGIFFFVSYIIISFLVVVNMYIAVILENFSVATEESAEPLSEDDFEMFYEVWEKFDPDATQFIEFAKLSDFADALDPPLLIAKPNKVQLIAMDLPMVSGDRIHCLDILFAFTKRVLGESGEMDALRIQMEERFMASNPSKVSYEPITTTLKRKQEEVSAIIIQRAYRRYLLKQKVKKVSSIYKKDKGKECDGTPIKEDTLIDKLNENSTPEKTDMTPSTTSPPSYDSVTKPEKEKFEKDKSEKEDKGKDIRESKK
T1 sequence (Q9UQD0 whole entry): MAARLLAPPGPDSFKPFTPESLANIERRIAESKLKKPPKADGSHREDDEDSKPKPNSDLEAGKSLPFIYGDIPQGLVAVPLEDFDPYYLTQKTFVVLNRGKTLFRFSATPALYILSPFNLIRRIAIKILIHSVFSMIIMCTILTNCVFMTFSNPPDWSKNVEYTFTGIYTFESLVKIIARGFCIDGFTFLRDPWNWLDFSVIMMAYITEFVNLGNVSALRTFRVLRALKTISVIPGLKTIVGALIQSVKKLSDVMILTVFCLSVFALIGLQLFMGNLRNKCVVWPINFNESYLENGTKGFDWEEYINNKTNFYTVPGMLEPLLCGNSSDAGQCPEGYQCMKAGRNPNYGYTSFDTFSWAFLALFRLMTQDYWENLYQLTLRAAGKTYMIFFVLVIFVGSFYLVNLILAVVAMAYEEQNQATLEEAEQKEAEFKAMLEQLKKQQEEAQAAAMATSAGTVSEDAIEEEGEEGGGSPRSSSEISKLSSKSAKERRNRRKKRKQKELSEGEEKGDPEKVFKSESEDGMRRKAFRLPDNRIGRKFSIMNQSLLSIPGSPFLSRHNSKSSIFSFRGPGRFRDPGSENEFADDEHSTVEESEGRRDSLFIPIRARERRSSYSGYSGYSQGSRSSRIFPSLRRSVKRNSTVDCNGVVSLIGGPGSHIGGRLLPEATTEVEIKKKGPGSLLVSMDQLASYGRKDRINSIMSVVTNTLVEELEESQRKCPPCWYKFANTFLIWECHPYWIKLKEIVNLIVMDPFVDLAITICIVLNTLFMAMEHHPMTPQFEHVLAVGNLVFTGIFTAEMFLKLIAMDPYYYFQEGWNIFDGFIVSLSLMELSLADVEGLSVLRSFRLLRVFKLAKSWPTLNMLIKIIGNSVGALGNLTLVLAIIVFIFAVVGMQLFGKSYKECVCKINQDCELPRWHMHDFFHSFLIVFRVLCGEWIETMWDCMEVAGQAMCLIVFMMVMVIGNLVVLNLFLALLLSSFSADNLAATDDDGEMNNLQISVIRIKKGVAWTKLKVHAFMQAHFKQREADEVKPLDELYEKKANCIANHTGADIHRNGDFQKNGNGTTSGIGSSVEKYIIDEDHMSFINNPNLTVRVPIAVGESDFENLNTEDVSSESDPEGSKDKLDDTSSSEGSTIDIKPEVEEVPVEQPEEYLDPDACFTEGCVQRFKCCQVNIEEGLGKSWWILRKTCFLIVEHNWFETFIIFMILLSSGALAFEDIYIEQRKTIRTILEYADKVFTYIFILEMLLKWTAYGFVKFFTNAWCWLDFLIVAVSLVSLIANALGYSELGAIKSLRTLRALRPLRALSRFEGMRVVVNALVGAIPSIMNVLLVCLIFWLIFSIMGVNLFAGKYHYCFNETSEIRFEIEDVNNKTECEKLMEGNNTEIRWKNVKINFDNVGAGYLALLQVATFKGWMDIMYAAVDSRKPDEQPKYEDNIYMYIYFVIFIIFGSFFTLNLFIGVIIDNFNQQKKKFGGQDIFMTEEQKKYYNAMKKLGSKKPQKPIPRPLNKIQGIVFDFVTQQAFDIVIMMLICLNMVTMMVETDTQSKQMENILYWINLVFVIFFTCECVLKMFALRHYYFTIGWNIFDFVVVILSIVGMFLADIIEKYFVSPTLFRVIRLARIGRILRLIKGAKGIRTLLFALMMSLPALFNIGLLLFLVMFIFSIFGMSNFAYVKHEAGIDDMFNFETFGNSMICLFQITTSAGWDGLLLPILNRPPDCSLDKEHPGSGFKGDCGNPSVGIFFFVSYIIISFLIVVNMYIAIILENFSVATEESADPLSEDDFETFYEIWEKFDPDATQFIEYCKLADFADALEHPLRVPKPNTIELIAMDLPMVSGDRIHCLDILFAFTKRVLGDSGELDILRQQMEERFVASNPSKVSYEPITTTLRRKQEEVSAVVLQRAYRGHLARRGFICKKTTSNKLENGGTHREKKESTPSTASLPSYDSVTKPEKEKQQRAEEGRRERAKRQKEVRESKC

CCCCCC(C)=O [2-heptanone]
IT100 / IT0 ([1]; 1.41 mg/mL): 517.5 ± 25.62 s | IT100 / IT0 ([1]; 1.41 mg/mL, listed as 2-Heptanone): 517.5 ± 25.62 s | IT100 / IT0 ([1]; 2.28 mg/mL (20 mM)): 358.8 ± 18.07 s | IT100 / IT0 ([1]; 2.28 mg/mL (20 mM), listed as 2-Heptanone): 358.8 ± 18.07 s | IT50 (time to inhibit CAP amplitude to 50% of control) ([1]; 10 mg/mL): 22.3 ± 1.1 s | CAP decreased to (% of control) ([1]; 10 mg/mL, within 70 seconds of treatment): 24% | IT50 (time to inhibit CAP amplitude to 50% of control) ([1]; 10 mg/mL, listed as 2-Heptanone): 22.3 ± 1.1 s | IT0 ([1]; stagnant saline, n=5): 5 to 9 min | IT0 ([1]; stirred saline, individual nerves): 5 min and 10 min | recovery of the CAP after washout, % of control ([1]; after 1.41 mg/mL): above 87.5% | IC50 (concentration required to inhibit the CAP to 50% of control) ([1]; estimated from time-response curves, GraphPad Prism 5): 469 ± 2 mg/L | neurotoxic effect on nerve fibres ([1]; ex vivo, within the limits of 24 h): no neurotoxic effect | fold slower than lidocaine ([1]; whole nerve preparation): 1.54 fold | times less toxic than lidocaine (Acute LD50): 5.6 times | times less active than lidocaine, hNav1.6 phasic [2]: 11.7 times | times less active than lidocaine, hNav1.6 tonic [2]: 4.6 times | Individual Data Points (% Inhibition), Nav1.6 phasic ([2]; 0.73 mg/ml, single cells): 81.1% | Individual Data Points (% Inhibition), Nav1.6 tonic ([2]; 0.73 mg/ml, single cells): 52.6% | Individual Data Points (% Inhibition), Nav1.6 phasic ([2]; 1.46 mg/ml, single cells): 99.9% | Individual Data Points (% Inhibition), Nav1.6 tonic ([2]; 1.46 mg/ml, single cells): 70.4% | Individual Data Points (% Inhibition), Nav1.6 phasic ([2]; 2.19 mg/ml, single cells): 101.0% | Individual Data Points (% Inhibition), Nav1.6 tonic ([2]; 2.19 mg/ml, single cells): 100.1% | Individual Data Points (% Inhibition), Nav1.6 phasic ([2]; 2.92 mg/ml, single cells): 100.7% | Individual Data Points (% Inhibition), Nav1.6 tonic ([2]; 2.92 mg/ml, single cells): 99.9% | inhibition at 730 µg/mL ([2]; 0.73 mg/ml, single cells, read-out: Individual Data Points (% Inhibition), Nav1.6 phasic): 94% | inhibition at 730 µg/mL ([2]; 0.73 mg/ml, single cells, read-out: Individual Data Points (% Inhibition), Nav1.6 tonic): 40.9% | inhibition at 730 µg/mL ([2]; 0.73 mg/ml, read-out: Mean % Inhibition, Nav1.6 phasic): 87.6% | inhibition at 730 µg/mL ([2]; 0.73 mg/ml, read-out: Mean % Nav1.6 Tonic Inhibition): 46.8% | inhibition at 1460 µg/mL ([2]; 1.46 mg/ml, single cells, read-out: Individual Data Points (% Inhibition), Nav1.6 phasic): 102% | inhibition at 1460 µg/mL ([2]; 1.46 mg/ml, single cells, read-out: Individual Data Points (% Inhibition), Nav1.6 tonic): 70.8% | inhibition at 1460 µg/mL ([2]; 1.46 mg/ml, read-out: Mean % Inhibition, Nav1.6 phasic): 101% | inhibition at 1460 µg/mL ([2]; 1.46 mg/ml, read-out: Mean % Nav1.6 Tonic Inhibition): 70.6% | inhibition at 2190 µg/mL ([2]; 2.19 mg/ml, single cells, read-out: Individual Data Points (% Inhibition), Nav1.6 phasic): 102% | inhibition at 2190 µg/mL ([2]; 2.19 mg/ml, single cells, read-out: Individual Data Points (% Inhibition), Nav1.6 tonic): 96.5% | inhibition at 2190 µg/mL ([2]; 2.19 mg/ml, read-out: Mean % Inhibition, Nav1.6 phasic): 101% | inhibition at 2190 µg/mL ([2]; 2.19 mg/ml, read-out: Mean % Nav1.6 Tonic Inhibition): 98.3% | inhibition at 2920 µg/mL ([2]; 2.92 mg/ml, single cells, read-out: Individual Data Points (% Inhibition), Nav1.6 phasic): 101% | inhibition at 2920 µg/mL ([2]; 2.92 mg/ml, single cells, read-out: Individual Data Points (% Inhibition), Nav1.6 tonic): 96.1% | inhibition at 2920 µg/mL ([2]; 2.92 mg/ml, read-out: Mean % Inhibition, Nav1.6 phasic): 101% | inhibition at 2920 µg/mL ([2]; 2.92 mg/ml, read-out: Mean % Nav1.6 Tonic Inhibition): 98% | IC50 ([2]; Example 7, n=2, read-out: Nav1.6 phasic IC50): < 6.39 mM | IC50 ([2]; Example 7, n=2, read-out: Nav1.6 tonic IC50 (converted)): 7.06 mM and 7.07 mM | hNav1.6 IC50, phasic ([2]; Example 18, mean ± SEM): 820 ± 30 mg/L | IC50 ([2]; Example 18, mean ± SEM, read-out: hNav1.6 IC50, tonic (converted)): 11.7 mM | Hill coefficient, Nav1.6 phasic ([2]; FIG. 41, mean±SE): 1.10±0.06 | Hill coefficient, Nav1.6 tonic ([2]; FIG. 41, mean±SE): 1.35±0.12 | neurotoxic effects on the peripheral nervous system [3]: no neurotoxic effects | acute LD50 [4]: 1760 mg/kg | times less active than lidocaine, hNav1.2 phasic [5]: 12.8 times | times less active than lidocaine, hNav1.2 tonic [5]: 7 times | Individual Data Points (% Inhibition), Nav1.2 phasic ([5]; 0.73 mg/ml, single cells): 44.6% | Individual Data Points (% Inhibition), Nav1.2 tonic ([5]; 0.73 mg/ml, single cells): 27. % | Individual Data Points (% Inhibition), Nav1.2 phasic ([5]; 1.46 mg/ml, single cells): 64.7% | Individual Data Points (% Inhibition), Nav1.2 tonic ([5]; 1.46 mg/ml, single cells): 45.8% | Individual Data Points (% Inhibition), Nav1.2 phasic ([5]; 2.19 mg/ml, single cells): 92.4% | Individual Data Points (% Inhibition), Nav1.2 tonic ([5]; 2.19 mg/ml, single cells): 73. % | Individual Data Points (% Inhibition), Nav1.2 phasic ([5]; 2.92 mg/ml, single cells): 99.8% | Individual Data Points (% Inhibition), Nav1.2 tonic ([5]; 2.92 mg/ml, single cells): 89. % | inhibition at 730 µg/mL ([5]; 0.73 mg/ml, single cells, read-out: Individual Data Points (% Inhibition), Nav1.2 phasic): 44.3% | inhibition at 730 µg/mL ([5]; 0.73 mg/ml, single cells, read-out: Individual Data Points (% Inhibition), Nav1.2 tonic): 31.5% | inhibition at 730 µg/mL ([5]; 0.73 mg/ml, read-out: Mean % Nav1.2 Phasic Inhibition): 44.4% | inhibition at 730 µg/mL ([5]; 0.73 mg/ml, read-out: Mean % Nav1.2 Tonic Inhibition): 29.7% | inhibition at 1460 µg/mL ([5]; 1.46 mg/ml, single cells, read-out: Individual Data Points (% Inhibition), Nav1.2 phasic): 67.9% | inhibition at 1460 µg/mL ([5]; 1.46 mg/ml, single cells, read-out: Individual Data Points (% Inhibition), Nav1.2 tonic): 49.3% | inhibition at 1460 µg/mL ([5]; 1.46 mg/ml, read-out: Mean % Nav1.2 Phasic Inhibition): 66.3% | inhibition at 1460 µg/mL ([5]; 1.46 mg/ml, read-out: Mean % Nav1.2 Tonic Inhibition): 47.6% | inhibition at 2190 µg/mL ([5]; 2.19 mg/ml, single cells, read-out: Individual Data Points (% Inhibition), Nav1.2 phasic): 87.6% | inhibition at 2190 µg/mL ([5]; 2.19 mg/ml, single cells, read-out: Individual Data Points (% Inhibition), Nav1.2 tonic): 56.7% | inhibition at 2190 µg/mL ([5]; 2.19 mg/ml, read-out: Mean % Nav1.2 Phasic Inhibition): 90% | inhibition at 2190 µg/mL ([5]; 2.19 mg/ml, read-out: Mean % Nav1.2 Tonic Inhibition): 65.1% | inhibition at 2920 µg/mL ([5]; 2.92 mg/ml, single cells, read-out: Individual Data Points (% Inhibition), Nav1.2 phasic): 98.2% | inhibition at 2920 µg/mL ([5]; 2.92 mg/ml, single cells, read-out: Individual Data Points (% Inhibition), Nav1.2 tonic): 78.7% | inhibition at 2920 µg/mL ([5]; 2.92 mg/ml, read-out: Mean % Nav1.2 Phasic Inhibition): 99% | inhibition at 2920 µg/mL ([5]; 2.92 mg/ml, read-out: Mean % Nav1.2 Tonic Inhibition): 83.9% | IC50 ([5]; Example 7, n=2, read-out: Nav1.2 phasic IC50 (converted)): 7.57 mM and 7.58 mM | IC50 ([5]; Example 7, n=2, read-out: Nav1.2 tonic IC50 (converted)): 12.1 mM | IC50 ([5]; Example 18, mean ± SEM, read-out: hNav1.2 IC50, phasic (converted)): 11.2 mM | IC50 ([5]; Example 18, mean ± SEM, read-out: hNav1.2 IC50, tonic (converted)): 16.6 mM | Hill coefficient, Nav1.2 phasic ([5]; FIG. 41, mean±SE): 1.24±0.17 | Hill coefficient, Nav1.2 tonic ([5]; FIG. 41, mean±SE): 1.44±0.02 | recovery of mCAP after 3 h (gastrocnemius muscle; 7.2 mg/kg intramuscular): 65.4±7.78% and 61% | IT50 of the integral of mCAPs (gastrocnemius muscle; 7.2 mg/kg intramuscular, in Tween 80 + 0.9% NaCl): 25.78 s | IT50 of the integral of mCAPs (gastrocnemius muscle; 10.8 mg/kg intramuscular): 11.16 s | recovery of mCAP, % of initial values after 3 h (gastrocnemius muscle; 10.8 mg/kg intramuscular): no recovery | times more effective than lidocaine (gastrocnemius muscle; similar IT50 at 7.2 mg/kg vs 10.8 mg/kg lidocaine): 1.5 times | IT50 of mCAPs (biceps muscle): 9.13 ± 0.73 s and 9.13 s
